“Also recorded” adds a separate entry of the source. Read-outs that look alike come from different tables or passages of the source. Where a SMILES comes first, the peptide text is derived from it. [ ]: non-standard residue; d: D form. pGlu = O=C1CC[C@@H](C(=O)O)N1
Columns and labels:
[1] = tested on: hemi-anterior pituitaries of adult male rats; experiment: LH release in vitro from incubated hemi-anterior pituitaries (RIA of medium); type: cell-based, rat; conditions: for LH: n = 6
Description: (§1) After acclimatization for 5 or more days in the vivarium, male rats were killed by decapitation. Following removal of the posterior lobe, the anterior pituitary (AP) was bisected longitudinally, and each AP was incubated in a tube containing 0.5 ml Krebs-Ringer bicarbonate (5 mM ascorbic acid; pH 7.4) buffer (KRB) in an atmosphere of 95% O2 /5% CO2 in a Dubnoff shaker (50 cycles per min) for a period of 60 min. Following this pre-incubation period, the APs were incubated for 3 hr in fresh KRB buffer alone (control), or in KRB containing one of various concentrations of synthetic mammalian (m)-LHRH, l-LHRH-III, l-LHRH-I, chicken (c)-LHRH-II, or salmon (s)-LHRH. The medium was then aspirated, and was stored frozen at -20° C. until radio-immunoassays (RIA) for FSH and LH were conducted. FSH and LH were measured using kits supplied by the National Institute of Arthritis Digestive Diabetes and Kidney Disease; hormone values were expressed in terms of NIH-rFSH-RP-2 and NIH-rLH-RP-3 standards. The experiments were repeated twice. The inter- and intra-assay coefficients of variation for FSH assays were 7.5% and 5.2%, respectively; and were 6.5% and 4.8% for LH assays.

[2] = tested on: hemi-anterior pituitaries of adult male rats; experiment: FSH release in vitro from incubated hemi-anterior pituitaries (RIA of medium); type: cell-based, rat; conditions: for FSH: n = 6
Description: as §1

[3] = tested on: ovariectomized, estrogen- and progesterone-blocked female rats; experiment: FSH release in vivo after intravenous injection; set-up: species or system rat; conditions: for selectivity for FSH release in vivo, result in words: screen of known LHRH's and LHRH analogs, unpublished data; for Change in FSH from baseline, 10 minutes post-injection: saline control -3.85 ± 0.82
Description: (§2) Female rats were ovariectomized under anesthesia with isoflurane 4 weeks prior to the in vivo experiments. Three days before blood sampling, each ovariectomized rat was injected subcutaneously with 50 μg estradiol benzoate (Sigma Chemical Co., St. Louis, Mo.) dissolved in 0.1 ml sesame oil, and 25 mg progesterone (Eli Lilly, Indianapolis, Ind.) dissolved in 0.5 ml sesame oil. One day prior to testing, each animal was implanted with a jugular-atrial catheter. On the morning of testing, polyethylene tubing (PE-50) was connected to the distal end of the jugular-atrial catheter on the rat's dorsum to facilitate blood sampling and intravenous injection. Animals were acclimatized one hour before initial blood samples were taken. Heparinized blood samples ([…]) were collected just before, and at 10, 30, and 60 minutes after injection of 0.5 ml isotonic saline or l-LHRH-III (10 or 100 pmole) in 0.5 ml isotonic saline. After removal of each blood sample, an equal volume of isotonic saline was administered to maintain blood volume.

rats = conditions: Yu et al., 1990; cited from earlier work
[4] = tested on: ovariectomized, estrogen- and progesterone-blocked female rats; experiment: LH release in vivo after intravenous injection; set-up: species or system rat; conditions: for Change in LH from baseline, 10 minutes post-injection: saline control -0.070 ± 0.122
Description: as §2

[5] = tested on: Petromyzon marinus (lamprey) ovaries; conditions: Sower et al., 1993; cited from earlier work
[6] = Table 5 experiment, 10^-6 M, KRB control 149.3 ± 17.0
[7] = Table 5 experiment, 10^-7 M, KRB control 149.3 ± 17.0
[8] = Table 5 experiment, 10^-8 M, KRB control 149.3 ± 17.0
[9] = Table 4 experiment, 10^-6 M, KRB control 157.5 ± 13.2
[10] = Table 4 experiment, 10^-7 M, KRB control 157.5 ± 13.2
[11] = Table 4 experiment, 10^-8 M, KRB control 157.5 ± 13.2
[12] = Table 3, 10^-5 M, 3 hr incubation, KRB control 139.3 ± 16.9
[13] = Table 3, 10^-6 M, 3 hr incubation, KRB control 139.3 ± 16.9
[14] = Table 2, 10^-5 M, 3 hr incubation, KRB control 97.7 ± 20.4
[15] = Table 2, 10^-6 M, 3 hr incubation, KRB control 97.7 ± 20.4

Compound: NC(=O)CNC(=O)[C@@H]1CCCN1C(=O)[C@H](Cc1ccc(O)cc1)NC(=O)[C@H](Cc1c[nH]c2ccccc12)NC(=O)CNC(=O)[C@H](Cc1c[nH]cn1)NC(=O)[C@H](CO)NC(=O)[C@H](Cc1c[nH]c2ccccc12)NC(=O)[C@H](Cc1c[nH]cn1)NC(=O)[C@@H]1CCC(=O)N1 [c-LHRH-II, pGlu-His-Trp-Ser-His-G1y-Trp-Tyr-Pro-Gly-NH2] ([pGlu]HWSHGWYPG-NH2)
- LH release in vitro, result in words [1]: equivalent LH-releasing activity to that of m-LHRH
- LH [1, 6]: 239.0 ± 31.7 ng/mL
- LH [1, 7]: 216.3 ± 17.7 ng/mL
- LH [1, 8]: 199.3 ± 13.6 ng/mL
- LH release in vitro, result in words ([1]; listed as Chicken (c) LHRH-II): stimulated LH release at doses from 10^-8 to 10^-6 M
- FSH release in vitro, result in words [2]: only significantly increased FSH release at the highest concentration tested (10^-6 M)
- FSH [2, 9]: 263.7 ± 17.8 ng/mL
- FSH [2, 10]: 209.3 ± 44.0 ng/mL
- FSH [2, 11]: 123.7 ± 18.0 ng/mL
- FSH release in vitro, result in words ([2]; listed as chicken LHRH-II): low potency, and lacked specificity for FSH release
- selectivity for FSH release in vivo, result in words [3]: slight selectivity for FSH release
- selectivity for FSH release in vivo, result in words ([3]; listed as chicken (c) LHRH-II): slightly preferential FSH-releasing activity in vivo

Compound: CC(C)C[C@H](NC(=O)[C@H](CO)NC(=O)[C@H](Cc1ccc(O)cc1)NC(=O)[C@H](Cc1c[nH]cn1)NC(=O)[C@@H]1CCC(=O)N1)C(=O)N[C@@H](CCC(=O)O)C(=O)N[C@@H](Cc1c[nH]c2ccccc12)C(=O)N[C@@H](CCCCN)C(=O)N1CCC[C@H]1C(=O)NCC(N)=O [l-LHRH-I, pGlu-His-Tyr-Ser-Leu-Glu-Trp-Lys-Pro-Gly-NH2] ([pGlu]HYSLEWKPG-NH2)
- LH release in vitro, result in words [1]: minimal potency to release either FSH or LH; also recorded: inactive at the two concentrations tested
- LH [1, 12]: 120.4 ± 8.1 ng/mL
- LH [1, 13]: 134.1 ± 23.2 ng/mL
- activity in releasing FSH or LH in rats (rats): relatively low activity in releasing either FSH or LH
- FSH release in vitro, result in words [2]: minimal potency to release either FSH or LH; also recorded: small but statistically significant release of FSH at a concentration of 10^-5 M
- FSH [2, 14]: 178.2 ± 17.0 ng/mL
- FSH [2, 15]: 164.0 ± 29.3 ng/mL

Compound: NCCCC[C@H](NC(=O)[C@H](Cc1c[nH]c2ccccc12)NC(=O)[C@H](CC(=O)O)NC(=O)[C@H](Cc1c[nH]cn1)NC(=O)[C@H](CO)NC(=O)[C@H](Cc1c[nH]c2ccccc12)NC(=O)[C@H](Cc1c[nH]cn1)NC(=O)[C@@H]1CCC(=O)N1)C(=O)N1CCC[C@H]1C(=O)NCC(N)=O [l-LHRH-III, pGlu-His-Trp-Ser-His-Asp-Trp-Lys-Pro-Gly-NH2]
- Change in LH from baseline, 10 minutes post-injection ([4]; 10 pmole intravenous, n = 6): -0.022 ± 0.078 ng/mL
- plasma LH after injection versus saline control, result in words ([4]; 10 pmole or 100 pmole intravenous, 10, 30, 60 minutes): no significant increase in LH
- Change in LH from baseline, 10 minutes post-injection ([4]; 100 pmole intravenous, n = 7): 0.097 ± 0.077 ng/mL
- LH ([1]; Table 3, 10^-4 M, 3 hr incubation, KRB control 139.3 ± 16.9): 236.6 ± 19.3 ng/mL
- LH [1, 12]: 202.9 ± 31.2 ng/mL
- LH [1, 13]: 233.6 ± 33.8 ng/mL
- LH ([1]; Table 3, 10^-7 M, 3 hr incubation, KRB control 139.3 ± 16.9): 179.9 ± 28.4 ng/mL
- LH ([1]; Table 3, 10^-8 M, 3 hr incubation, KRB control 139.3 ± 16.9): 165.7 ± 26.6 ng/mL
- LH ([1]; Table 3, 10^-9 M, 3 hr incubation, KRB control 139.3 ± 16.9): 171.8 ± 27.3 ng/mL
- LH [1, 6]: 176.0 ± 9.3 ng/mL
- LH [1, 7]: 182.7 ± 13.7 ng/mL
- LH [1, 8]: 163.2 ± 6.5 ng/mL
- LH ([1]; Table 5 experiment, 10^-9 M, KRB control 149.3 ± 17.0): 158.7 ± 10.2 ng/mL
- FSH release in vitro, result in words [2]: approximately equipotent toward releasing FSH; also recorded: caused FSH release in a dose-related fashion
- FSH ([2]; Table 2, 10^-4 M, 3 hr incubation, KRB control 97.7 ± 20.4): 368.6 ± 40.9 ng/mL
- FSH [2, 14]: 283.0 ± 60.8 ng/mL
- FSH [2, 15]: 278.2 ± 40.9 ng/mL
- FSH ([2]; Table 2, 10^-7 M, 3 hr incubation, KRB control 97.7 ± 20.4): 213.0 ± 17.9 ng/mL
- FSH ([2]; Table 2, 10^-8 M, 3 hr incubation, KRB control 97.7 ± 20.4): 255.7 ± 42.4 ng/mL
- FSH ([2]; Table 2, 10^-9 M, 3 hr incubation, KRB control 97.7 ± 20.4): 228.3 ± 52.5 ng/mL
- MEC for statistically significant FSH release relative to c-LHRH-II ([2]; Table 4 experiment): two orders of magnitude lower
- FSH [2, 9]: 215.0 ± 38.0 ng/mL
- FSH [2, 10]: 203.2 ± 16.4 ng/mL
- FSH [2, 11]: 249.3 ± 31.3 ng/mL
- FSH ([2]; Table 4 experiment, 10^-9 M, KRB control 157.5 ± 13.2): 196.3 ± 21.2 ng/mL
- minimal effective concentration (MEC) for FSH release ([2]; lowest concentration tested 10^-9 M): ≤ 10^-9 M
- concentration of maximal effect on FSH release ([2]; release levelled off through 10^-4 M): about 10^-6 M
- release of FSH versus LH in vivo, result in words ([3]; 10 pmole and 100 pmole): caused the release of FSH in vivo, but not LH
- plasma FSH after injection versus saline control, result in words ([3]; 10 pmole intravenous): highly significant increase in plasma FSH 10 minutes after injection, an effect that vanished by 30 minutes post-injection; also recorded: increase in FSH in vivo (P<0.01) within ten minutes
- Change in FSH from baseline, 10 minutes post-injection ([3]; 10 pmole intravenous, n = 6): -0.75 ± 0.37 ng/mL
- plasma FSH after injection versus saline control, result in words ([3]; 100 pmole intravenous): slightly greater effect at 10 minutes that was maintained 30 minutes after injection
- Change in FSH from baseline, 10 minutes post-injection ([3]; 100 pmole intravenous, n = 7): -0.43 ± 0.61 ng/mL
- estradiol and progesterone release from ovaries [5]: stimulated estradiol and progesterone release

Compound: CC(C)C[C@H](NC(=O)CNC(=O)[C@H](Cc1ccc(O)cc1)NC(=O)[C@H](CO)NC(=O)[C@H](Cc1c[nH]c2ccccc12)NC(=O)[C@H](Cc1c[nH]cn1)NC(=O)[C@@H]1CCC(=O)N1)C(=O)N[C@@H](CCCNC(=N)N)C(=O)N1CCC[C@H]1C(=O)NCC(N)=O [m-LHRH, pGlu-His-Trp-Ser-Tyr-Gly-Leu-Arg-Pro-Gly-NH2]
- LH release in vitro, result in words [1]: dose-related stimulatory effect on LH release, and was active at the lowest concentration tested (4×10^-9 M)
- LH ([1]; Table 3, 2 × 10^-8 M, 3 hr incubation, KRB control 139.3 ± 16.9): 262.0 ± 36.1 ng/mL
- LH ([1]; Table 3, 4 × 10^-9 M, 3 hr incubation, KRB control 139.3 ± 16.9): 183.1 ± 27.0 ng/mL
- LH ([1]; Table 5 experiment, 2 × 10^-8 M, KRB control 149.3 ± 17.0): 214.7 ± 30.3 ng/mL
- FSH release in vitro, result in words [2]: approximately equipotent toward releasing FSH; also recorded: equivalent levels of FSH release at the two concentrations tested
- FSH ([2]; Table 2, 2 × 10^-8 M, 3 hr incubation, KRB control 97.7 ± 20.4): 257.5 ± 42.4 ng/mL
- FSH ([2]; Table 2, 4 × 10^-9 M, 3 hr incubation, KRB control 97.7 ± 20.4): 218.5 ± 35.7 ng/mL
- FSH ([2]; Table 4 experiment, 2 × 10^-8 M, KRB control 157.5 ± 13.2): 320.5 ± 42.6 ng/mL

Compound: CC(C)C[C@H](NC(=O)[C@H](Cc1c[nH]c2ccccc12)NC(=O)CNC(=O)[C@H](Cc1ccc(O)cc1)NC(=O)[C@H](CO)NC(=O)[C@H](Cc1c[nH]c2ccccc12)NC(=O)[C@H](Cc1c[nH]cn1)NC(=O)[C@@H]1CCC(=O)N1)C(=O)N1CCC[C@H]1C(=O)NCC(N)=O [s-LHRH, pGlu-His-Trp-Ser-Tyr-Gly-Trp-Leu-Pro-Gly-NH2] ([pGlu]HWSYGWLPG-NH2)
- LH release in vitro, result in words [1]: stimulated the release of both FSH and LH
- LH [1, 6]: 186.2 ± 13.6 ng/mL
- LH [1, 7]: 230.8 ± 38.8 ng/mL
- FSH [2, 9]: 203.2 ± 39.2 ng/mL
- FSH [2, 10]: 233.0 ± 37.4 ng/mL
- FSH release in vitro, result in words ([2]; listed as Salmon (s)-LHRH): stimulated the release of both FSH and LH
- FSH release in vitro, result in words ([2]; listed as Salmon LHRH): low potency, and lacked specificity for FSH release

Source: patent US6300471A, “FSH-releasing peptides” (Board of Supervisors of Louisiana State University and …, priority 1998, dated 2001)
